Active and inactive are the calls of the source.
Legend:
Assay type in all cases: functional
P388/ADR = assay: cells; conditions: Mus musculus
SN12K1 = assay: cells; conditions: Homo sapiens
P388 = assay: cells; conditions: Mus musculus
[1] = target: T1, Apoptotic protease-activating factor 1 (Homo sapiens, UniProt O14727)
T1 sequence (O14727 whole entry): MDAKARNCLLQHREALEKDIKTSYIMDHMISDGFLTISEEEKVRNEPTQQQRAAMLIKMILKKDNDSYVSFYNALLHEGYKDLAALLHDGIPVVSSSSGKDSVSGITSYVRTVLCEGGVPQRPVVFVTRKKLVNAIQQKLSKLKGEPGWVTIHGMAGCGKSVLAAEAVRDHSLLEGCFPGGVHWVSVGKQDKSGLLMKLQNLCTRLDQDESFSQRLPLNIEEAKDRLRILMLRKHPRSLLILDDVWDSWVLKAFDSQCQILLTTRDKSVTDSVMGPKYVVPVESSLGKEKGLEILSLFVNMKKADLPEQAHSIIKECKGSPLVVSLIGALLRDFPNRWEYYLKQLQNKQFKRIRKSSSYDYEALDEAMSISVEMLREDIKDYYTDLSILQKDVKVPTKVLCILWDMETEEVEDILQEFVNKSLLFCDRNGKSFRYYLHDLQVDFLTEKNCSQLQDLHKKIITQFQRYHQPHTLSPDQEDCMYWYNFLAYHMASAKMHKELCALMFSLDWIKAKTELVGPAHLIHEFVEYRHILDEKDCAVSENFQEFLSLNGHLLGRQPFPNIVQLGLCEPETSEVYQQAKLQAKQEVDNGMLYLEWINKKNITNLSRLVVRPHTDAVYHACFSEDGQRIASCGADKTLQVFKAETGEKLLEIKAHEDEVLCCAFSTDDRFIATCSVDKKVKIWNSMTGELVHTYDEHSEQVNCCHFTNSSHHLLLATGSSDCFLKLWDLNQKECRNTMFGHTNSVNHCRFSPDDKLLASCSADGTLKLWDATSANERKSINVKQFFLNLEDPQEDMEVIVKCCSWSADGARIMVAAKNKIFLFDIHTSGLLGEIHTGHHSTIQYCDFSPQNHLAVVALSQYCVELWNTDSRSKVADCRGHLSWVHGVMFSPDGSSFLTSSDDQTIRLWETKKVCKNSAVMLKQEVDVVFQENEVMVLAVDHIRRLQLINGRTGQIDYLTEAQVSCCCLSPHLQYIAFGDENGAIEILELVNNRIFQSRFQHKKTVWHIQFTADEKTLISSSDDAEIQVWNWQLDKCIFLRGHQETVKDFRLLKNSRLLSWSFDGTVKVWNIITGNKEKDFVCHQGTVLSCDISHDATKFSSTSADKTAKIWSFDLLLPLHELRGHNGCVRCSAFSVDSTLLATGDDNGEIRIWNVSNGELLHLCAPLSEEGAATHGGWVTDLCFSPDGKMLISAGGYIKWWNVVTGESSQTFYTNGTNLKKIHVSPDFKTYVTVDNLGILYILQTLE

[2] = target: T2, Ubiquitin-conjugating enzyme E2 N (Homo sapiens, UniProt P61088);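 also: Dose-response confirmation in a TR-FRET assay detecting UBC13-driven polyubiquitin chain formation, inhibition measured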
T2 sequence (P61088 whole entry): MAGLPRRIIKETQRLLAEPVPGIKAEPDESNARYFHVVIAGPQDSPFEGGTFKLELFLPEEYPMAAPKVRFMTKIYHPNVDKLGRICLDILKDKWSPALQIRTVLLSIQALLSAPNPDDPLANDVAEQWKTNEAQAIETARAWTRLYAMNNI

Protein RecA = target: T3, Protein RecA (Mycobacterium tuberculosis, UniProt P9WHJ3); assay: Fluorescence Cell-Free Homogeneous Dose Retest to Identify Inhibitors of RecA-Intein Splicing Activity. [Related pubchem assays (depositor defined):AID2097, AID2223, AID489010, AID492950]
T3 sequence (P9WHJ3 whole entry): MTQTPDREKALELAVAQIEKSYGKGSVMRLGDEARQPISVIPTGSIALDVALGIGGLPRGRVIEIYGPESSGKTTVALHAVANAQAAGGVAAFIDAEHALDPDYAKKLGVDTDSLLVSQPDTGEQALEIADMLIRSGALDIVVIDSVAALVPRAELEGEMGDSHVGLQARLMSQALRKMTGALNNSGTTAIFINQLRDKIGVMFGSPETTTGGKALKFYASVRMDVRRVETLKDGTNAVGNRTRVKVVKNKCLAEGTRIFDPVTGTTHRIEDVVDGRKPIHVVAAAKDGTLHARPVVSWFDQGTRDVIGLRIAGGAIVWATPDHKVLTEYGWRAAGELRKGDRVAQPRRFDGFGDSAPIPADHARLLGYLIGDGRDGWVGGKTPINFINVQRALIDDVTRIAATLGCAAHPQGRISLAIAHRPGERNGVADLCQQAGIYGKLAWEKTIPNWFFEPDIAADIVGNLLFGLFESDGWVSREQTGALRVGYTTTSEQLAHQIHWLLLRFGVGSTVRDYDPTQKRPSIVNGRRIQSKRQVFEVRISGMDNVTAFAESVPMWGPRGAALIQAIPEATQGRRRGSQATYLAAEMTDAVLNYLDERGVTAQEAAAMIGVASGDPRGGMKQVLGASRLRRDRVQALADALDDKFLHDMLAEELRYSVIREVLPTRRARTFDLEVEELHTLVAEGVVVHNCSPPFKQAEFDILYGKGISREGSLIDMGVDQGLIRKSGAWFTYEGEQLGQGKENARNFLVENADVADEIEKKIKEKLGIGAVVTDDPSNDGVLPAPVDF

[3] = target: T4, Replicative DNA helicase DnaB (Mycobacterium tuberculosis, UniProt P9WMR3); assay: DnaB intein splicing inhibitors, dose response, biochemical, cell-free fluorescence (AID 449749)
T4 sequence (P9WMR3 whole entry): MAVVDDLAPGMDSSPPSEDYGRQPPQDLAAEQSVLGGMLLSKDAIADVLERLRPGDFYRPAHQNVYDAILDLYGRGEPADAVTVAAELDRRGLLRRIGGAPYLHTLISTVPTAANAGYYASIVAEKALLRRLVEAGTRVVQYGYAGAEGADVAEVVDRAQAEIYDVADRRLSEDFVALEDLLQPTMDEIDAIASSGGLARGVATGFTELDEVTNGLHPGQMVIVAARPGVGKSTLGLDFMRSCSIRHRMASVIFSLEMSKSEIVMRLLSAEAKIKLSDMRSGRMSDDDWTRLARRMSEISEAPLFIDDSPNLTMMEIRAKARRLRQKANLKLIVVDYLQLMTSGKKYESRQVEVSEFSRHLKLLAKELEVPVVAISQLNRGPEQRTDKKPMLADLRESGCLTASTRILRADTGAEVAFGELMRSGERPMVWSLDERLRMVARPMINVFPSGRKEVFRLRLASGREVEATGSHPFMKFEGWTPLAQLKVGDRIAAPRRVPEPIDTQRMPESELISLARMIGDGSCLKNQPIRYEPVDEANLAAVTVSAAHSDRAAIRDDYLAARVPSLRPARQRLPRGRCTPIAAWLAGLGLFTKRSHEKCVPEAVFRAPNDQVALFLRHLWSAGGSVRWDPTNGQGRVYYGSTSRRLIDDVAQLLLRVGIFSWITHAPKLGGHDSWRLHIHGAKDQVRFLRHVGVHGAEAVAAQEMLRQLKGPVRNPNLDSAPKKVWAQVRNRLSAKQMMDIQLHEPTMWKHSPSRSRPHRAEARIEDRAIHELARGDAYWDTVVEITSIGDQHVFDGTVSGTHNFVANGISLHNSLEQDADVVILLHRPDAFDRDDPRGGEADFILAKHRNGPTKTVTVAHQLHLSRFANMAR

| Compound | GI50 (P388/ADR) | GI50 (SN12K1) | GI50 (P388) | EC50 (Protein RecA) | AC50 [3] | other results |
| --- | --- | --- | --- | --- | --- | --- |
| N[C@H](C(=O)O)[C@@H]1CC(Cl)=NO1 [ACIVICIN] | 0.471 µM (active) | 1.13 µM (inactive) | 0.242 µM (active) |  |  |  |
| CO[C@H]1Nc2c(ccc(C)c2O)C(=O)N2C=C(/C=C/C(N)=O)C[C@@H]12 [ANTHRAMYCIN METHYL ETHER] | 0.101 µM (active) | 0.0197 µM (active) | 0.0436 µM (active) |  |  |  |
| OC[C@H]1O[C@@H](n2cnc3cncnc32)[C@H](O)[C@@H]1O [NEBULARINE] | 0.305 µM (active) | 1.48 µM (inactive) | 0.321 µM (active) |  |  |  |
| COc1ccccc1OCCNC(=O)c1cccc(S(=O)(=O)N2CCN(Cc3ccccc3)CC2)c1 |  |  |  |  |  | IC50 [1]: > 100 µM (inactive); IC50 [2]: > 20 µM (inactive) |
| COC(=O)C1=C(C)N(Cc2ccccc2)C(NCCc2c[nH]c3ccccc23)=N[C@H]1c1cccc(C(F)(F)F)c1 |  |  |  |  |  | IC50 [1]: 71 µM (active); IC50 [2]: > 20 µM (inactive) |
| O=C(c1ccc(N2CCN(CCO)CC2)nc1)N1CCOCC1 |  |  |  | > 380 µM (inactive) | > 380 µM (inactive) |  |
| CC1=NN(c2ccccc2)C(=O)C1=C(C)C |  |  |  | 2.46 µM (active) | 5.6 µM (active) |  |
| CC(=O)OC1CCC2(C)C(CCC3C2CCC2(C)C(c4ccc(=O)oc4)C(OC(C)=O)CC32O)C1 (configuration not stated) | 40.9 µM (inactive) | 0.0144 µM (active) | 14.6 µM (inactive) |  |  |  |
| CCCc1n[nH]c(O)c1C(c1ccc(Cl)cc1)C(C#N)C#N (configuration not stated) |  |  |  | 4.14 µM (active) | 8.44 µM (active) |  |

Source: ChEMBL document CHEMBL1201862, “PubChem BioAssay data set” (2004)
